Results published in patent US20260042769A1, “TRIARYL AGONISTS OF ALPHA-2 ADRENERGIC RECEPTORS” (ALCEPTOR THERAPEUTICS, INC., priority 2023, published 2026).

target: T1, human ADRA2B receptor (Homo sapiens, UniProt P18089); experiment: ADRA2B arrestin agonist assay; type: cell-based; conditions: CHO-K1 cells stably expressing human ADRA2B; read-out: Beta-Arrestin - Human Alpha2B EC50
T1 construct: expressed in transfected cells
T1 sequence (P18089 1-450): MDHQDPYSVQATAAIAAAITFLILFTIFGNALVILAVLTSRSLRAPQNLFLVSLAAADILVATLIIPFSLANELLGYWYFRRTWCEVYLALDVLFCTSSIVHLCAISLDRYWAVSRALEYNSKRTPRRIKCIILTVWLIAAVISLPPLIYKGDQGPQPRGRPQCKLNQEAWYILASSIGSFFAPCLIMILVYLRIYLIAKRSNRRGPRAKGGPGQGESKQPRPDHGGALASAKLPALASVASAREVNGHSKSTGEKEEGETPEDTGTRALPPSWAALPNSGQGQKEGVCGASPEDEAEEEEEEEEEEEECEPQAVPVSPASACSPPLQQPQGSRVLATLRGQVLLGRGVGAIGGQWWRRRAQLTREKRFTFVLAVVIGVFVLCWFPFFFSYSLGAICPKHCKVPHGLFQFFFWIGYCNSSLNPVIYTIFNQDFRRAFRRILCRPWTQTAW
Method in brief: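 CHO-K1 cells stably expressing human ADRA2B, thawed from frozen stock and plated overnight, were treated with agonist for 2 h at 37 °C. Arrestin recruitment detected by luminescence after 2 h with detection reagents at room temperature.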

SMILES	EC50 [nM]
Cc1cc(CC(c2c[nH]cn2)c2cccc(C)c2C)ccn1 (centres unmarked) [Compound 255, 4-[2-(2-methyl-4-pyridyl)-1-(2,3-xylyl)ethyl]imidazole]	< 10
COc1nccc(C[C@H](c2c[nH]cn2)c2cccc(C)c2OC)n1 [Compound 180, 4-[(S)-2-(4-imidazolyl)-2-(2-methoxy-3-tolyl)ethyl]-2-methoxypyrimidine]	> 500
Cc1cccc([C@@H](Cc2cn(C)nn2)c2c[nH]cn2)c1F [Compound 249, 4-[(R)-2-(2-fluoro-3-tolyl)-2-(4-imidazolyl)ethyl]-1-methyl-1H-1,2,3-triazole]	< 10
Cc1cccc([C@@H](Cc2cc[nH]n2)c2c[nH]cn2)c1C [Compound 234, 3-[(R)-2-(4-imidazolyl)-2-(2,3-xylyl)ethyl]pyrazole]	> 500
Cc1nccc(C[C@H](c2c[nH]cn2)c2cccc3c2OCCCO3)n1 [Compound 352, 4-[(S)-2-(3,4-dihydro-2H-1,5-benzodioxepin-6-yl)-2-(4-imidazolyl)ethyl]-2-methylpyrimidine]	> 500
Cc1cccc([C@H](Cc2ccnc(C(C)(C)O)n2)c2c[nH]cn2)c1C [Compound 211, 2-{4-[(S)-2-(4-imidazolyl)-2-(2,3-xylyl)ethyl]-2-pyrimidinyl}-2-propanol]	> 500
Cc1cccc(C(Cc2cnsc2)c2c[nH]cn2)c1C (centres unmarked) [Compound 391, 4-[2-(4-imidazolyl)-2-(2,3-xylyl)ethyl]isothiazole]	< 10
Cc1cccc(C(Cc2cnc3[nH]ccc3c2)c2c[nH]cn2)c1C (centres unmarked) [Compound 283, 4-[2-(1H-1,7-diazainden-5-yl)-1-(2,3-xylyl)ethyl]imidazole]	< 10
Cc1cc(CC(c2c[nH]cn2)c2cccc(C)c2C)c(F)cn1 (centres unmarked) [Compound 315, 4-[2-(5-fluoro-2-methyl-4-pyridyl)-1-(2,3-xylyl)ethyl]imidazole]	< 10
Cc1cccc(C(Cc2ccnc(F)c2)c2c[nH]cn2)c1F (centres unmarked) [Compound 321, 4-[2-(2-fluoro-4-pyridyl)-1-(2-fluoro-3-tolyl)ethyl]imidazole]	< 10
COc1ncc(CC(c2c[nH]cn2)c2cccc(C)c2C)cn1 (centres unmarked) [Compound 339, 5-[2-(4-imidazolyl)-2-(2,3-xylyl)ethyl]-2-methoxypyrimidine]	50 to 500
Cc1cccc(C(Cc2c(C)ccnc2C)c2c[nH]cn2)c1C (centres unmarked) [Compound 386, 4-[2-(2,4-dimethyl-3-pyridyl)-1-(2,3-xylyl)ethyl]imidazole]	> 500
CNc1ccc(CC(c2c[nH]cn2)c2cccc(C)c2C)cn1 (centres unmarked) [Compound 270, N-methyl{5-[2-(4-imidazolyl)-2-(2,3-xylyl)ethyl]-2-pyridyl}amine]	< 10
COCc1nccc(C[C@@H](c2c[nH]cn2)c2cccc(C)c2C)n1 [Compound 345, 4-[(R)-2-(4-imidazolyl)-2-(2,3-xylyl)ethyl]-2-(methoxymethyl)pyrimidine]	< 10
Cc1cccc(C(Cc2ccnc(COC3CC3)n2)c2c[nH]cn2)c1C (centres unmarked) [Compound 208, 2-(cyclopropoxymethyl)-4-[2-(4-imidazolyl) 2-(2,3-xylyl)ethyl]pyrimidine]	< 10
Cc1cccc([C@@H](Cc2cn[nH]c2)c2c[nH]cn2)c1C [Compound 232, 4-[(R)-2-(4-imidazolyl)-2-(2,3-xylyl)ethyl]pyrazole]	> 500
Cc1cccc(C(Cc2ccn3ccnc3c2)c2c[nH]cn2)c1C (centres unmarked) [Compound 403, 4-[2-(1,3a-diaza-6-indenyl)-1-(2,3-xylyl)ethyl]imidazole]	10 to 50
Cc1cccc(C(Cc2cc[nH]n2)c2c[nH]cn2)c1F (centres unmarked) [Compound 236, 3-[2-(2-fluoro-3-tolyl)-2-(4-imidazolyl)ethyl]pyrazole]	50 to 500
Cc1cccc(C[C@H](c2c[nH]cn2)c2cccc3c2OCC3)n1 [Compound 266, 4-[(S)-1-(2,3-dihydro-1-benzofuran-7-yl)-2-(6-methyl-2-pyridyl)ethyl]imida-]	> 500
Cc1cccc(C(Cc2ccsn2)c2c[nH]cn2)c1C (centres unmarked) [Compound 245, 3-[2-(4-imidazolyl)-2-(2,3-xylyl)ethyl]isothiazole]	< 10
COc1cccc(C(Cc2cccnn2)c2c[nH]cn2)c1C (centres unmarked) [Compound 140, 3-[2-(4-imidazolyl)-2 (3-methoxy-2-tolyl)ethyl]pyridazine]	> 500
Clc1cccc(C(Cc2cccnn2)c2c[nH]cn2)c1 (centres unmarked) [Compound 139, 3-[2-(m-chlorophenyl)-2-(4-imidazolyl)ethyl] pyridazine]	> 500

The next lines start with the values.

EC50 [nM]	SMILES
< 10	Cc1nccc(CC(c2c[nH]cn2)c2cccc3ccn(C)c23)n1 (centres unmarked) [Compound 342, 4-[2-(4-imidazolyl)-2-(1-methyl-7-indolyl)ethyl]-2-methylpyrimidine]
> 500	COc1nccc(C[C@H](c2c[nH]cn2)c2cccc(F)c2OC)n1 [Compound 183, 4-[(S)-2-(3-fluoro-2-methoxyphenyl)-2-(4-imidazolyl)ethyl]-2-methoxypyrimidine]
50 to 500	Cc1cc(CC(c2c[nH]cn2)c2cccc3ccn(C)c23)ncn1 (centres unmarked) [Compound 165, 4-[2-(4-imidazolyl)-2-(1-methyl-7-indolyl)ethyl]-6-methylpyrimidine]
10 to 50	Cn1nc2ccccc2c1CC(c1c[nH]cn1)c1cccc2c1OCC2 (centres unmarked) [Compound 308, 3-[2-(2,3-dihydro-1-benzofuran-7-yl)-2-(4-imidazolyl)ethyl]-2-methyl-2H-indazole]
10 to 50	c1cc2c(c([C@H](Cc3cc[nH]n3)c3c[nH]cn3)c1)OCC2 [Compound 238, 3-[(S)-2-(2,3-dihydro-1-benzofuran-7-yl)-2-(4-imidazolyl)ethyl]pyrazole]
50 to 500	Cc1ncncc1CC(c1c[nH]cn1)c1cccc2c1OCC2 (centres unmarked) [Compound 268, 5-[2-(2,3-dihydro-1-benzofuran-7-yl)-2-(4-imidazolyl)ethyl]-4-methylpyrimidine]
50 to 500	CCOc1c(F)cccc1C(Cc1ccnc(OC)n1)c1c[nH]cn1 (centres unmarked) [Compound 197, 4-[2-(2-ethoxy-3-fluorophenyl)-2-(4-imidazolyl)ethyl]-2-methoxypyrimidine]
< 10	Cc1cccc([C@H](Cc2ccn(C(F)F)n2)c2c[nH]cn2)c1C [Compound 280, 3-[(S)-2-(4-imidazolyl)-2-(2,3-xylyl)ethyl]-1-(difluoromethyl)pyrazole]
10 to 50	Cc1cccc(C(Cc2cnc3cnccn23)c2c[nH]cn2)c1C (centres unmarked) [Compound 285, 3-[2-(4-imidazolyl)-2-(2,3-xylyl)ethyl]-1,3a,6-triazaindene]
> 500	Cc1nccc(CC(c2ccc3cccnc3c2)c2c[nH]cn2)n1 (centres unmarked) [Compound 161, 4-[2-(4-imidazolyl)-2-(7-quinolyl)ethyl]-2-methylpyrimidine]
< 10	COCc1nccc(CC(c2c[nH]cn2)c2cccc3c2OCC3)n1 (centres unmarked) [Compound 306, 4-[2-(2,3-dihydro-1-benzofuran-7-yl)-2-(4-imidazolyl)ethyl]-2-(methoxymethyl)pyrimidine]
50 to 500	Cc1cccc([C@H](Cc2ccnn2C)c2c[nH]cn2)c1F [Compound 247, 5-[(S)-2-(2-fluoro-3-tolyl)-2-(4-imidazolyl)ethyl]-1-methylpyrazole]
< 10	Cc1cccc(C(Cc2cnc3n[nH]cc3c2)c2c[nH]cn2)c1C (centres unmarked) [Compound 287, 5-[2-(4-imidazolyl)-2-(2,3-xylyl)ethyl]-2H-1,2,7-triazaindene-formic acid (1/1)]
< 10	Cc1cccc([C@@H](Cc2ccnc(C(C)(C)O)n2)c2c[nH]cn2)c1C [Compound 212, 2-{4-[(R)-2-(4-imidazolyl)-2-(2,3-xylyl)ethyl]-2-pyrimidinyl}-2-propanol]
> 500	COc1nccc(CC(c2ccc(F)c(F)c2)c2c[nH]cn2)n1 (centres unmarked) [Compound 162, 4-[2-(3,4-difluorophenyl)-2-(4-imidazolyl)ethyl]-2-methoxypyrimidine]
< 10	Cc1nccc(CC(c2c[nH]cn2)c2cccc3c2OCCO3)n1 (centres unmarked) [Compound 343, 4-[2-(2,3-dihydro-1,4-benzodioxin-5-yl)-2-(4-imidazolyl)ethyl]-2-methylpyrimidine]
> 500	CC(C)n1cc(C[C@@H](c2c[nH]cn2)c2cccc3c2OCC3)cn1 [Compound 297, 4-[(R)-2-(2,3-dihydro-1-benzofuran-7-yl)-2-(4-imidazolyl)ethyl] 1-isopropylpyrazole]
< 10	Cc1cccc([C@@H](Cc2cccc(CF)n2)c2c[nH]cn2)c1C [Compound 150, 4-{(R)-2-[6-(fluoromethyl)-2-pyridyl]-1-(2,3-xylyl)ethyl}imidazole]
50 to 500	Cc1cccc([C@H](Cc2cccc(CF)n2)c2c[nH]cn2)c1C [Compound 151, 4-{(S)-2-[6-(fluoromethyl)-2-pyridyl]-1-(2,3-xylyl)ethyl}imidazole]
< 10	Cc1cccc([C@@H](Cc2cccc(C(C)(C)O)n2)c2c[nH]cn2)c1C [Compound 304, 2-{6-[(R)-2-(4-imidazolyl) 2-(2,3-xylyl)ethyl]-2-pyridyl}-2-propanol]
< 10	COC(C)(C)c1nccc(CC(c2c[nH]cn2)c2cccc(C)c2C)n1 (centres unmarked) [Compound 209, 4-[2-(4-imidazolyl)-2-(2,3-xylyl)ethyl]-2-(1-methoxy-1-methylethyl)pyrimidine]

same assay, conditions: read-out: Beta-Arrestin - Human Alpha2B EC50

SMILES	EC50 [nM]
Cc1cccc([C@@H](Cc2ccncc2)c2c[nH]cn2)c1C [Compound 320, 4-[(R)-2-(4-pyridyl)-1-(2,3-xylyl)ethyl]imidazole]	> 500
